What was measured:
[1] = test system: SPX1 phosphate starvation biomarker; assay: Chemical activity assessment with Arabidopsis pSPX1::GUS reporter line (GUS stained area); type: in vivo, Arabidopsis thaliana; details: low phosphate, 50 μM, 7 days after germination; compare with low phosphate controls of same plate (Table 5 c3)
Procedure: (§1) All Arabidopsis plant experiments were performed using the Arabidopsis thaliana Columbia-0 background. The Arabidopsis pSPX1::GUS line is described in the Plant Journal 2008, 54: 965-975. For rice, the cultivar Nipponbare was used. For maize, the cultivars DKC 2931 and B104 were used for regular pot experiments and sand-based pot experiments, respectively. For soybean, the cultivar Primus was used. […] The medium was solidified due to the addition of 0.6% Gelrite, unless stated otherwise. In case of vertical plates (root length and root hair measurements), the medium was supplied with 0.5% of sucrose and 1 μM (low phosphate, 1 μM KH2PO4, 9.9 mM KCl), 10 μM (low phosphate 10 μM KH2PO4, 9.9 mM KCl) or 1.25 mM KH2PO4 (high phosphate). Arabidopsis seeds were stratified for 2 days at 4° C. before germination. Seedlings were germinated in climate-controlled growth chambers at 22° C. under continuous light (100 μmol m^−2 s^−1). Husked rice seeds were germinated on wetted Whatman paper for 2 days at 37° C. and then transferred to Sterivent boxes or square Petri dishes with solid medium. Maize and soybean seeds were wetted 24 hours at room temperature prior to sowing in pots.
For the chemical activity assessment 3 to 8 seeds per well of Arabidopsis pSPX1::GUS line were sown in 96-well plates containing 150 μl of low phosphate modMS liquid medium containing 1% of sucrose. Compounds were added in 50 μM concentration, starting from a 5 mM stock of compounds solved in DMSO. Different chemical substances were separately added to different wells. Per plate, 16 control wells were used, 8 containing only the low phosphate medium and 1% DMSO, and 8 containing high phosphate medium and 1% DMSO. 7 days after germination, plates were scanned using a flatbed scanner (EPSON Expression 11000XL) and analyzed for leaf size. After scanning, the growth medium was replaced by GUS staining solution (see Plant Mol. Biol. Rep. 1994, 12: 37-42 for details) and incubated for 1.5 hours at 37° C. The plates were scanned a second time and analyzed for GUS signal area. Measurements of both leaf area and GUS signal area were conducted by filtering out and measure the green and blue signal, respectively using ImageJ software. If the green leaf area was 50% or less than the control, samples were omitted. Additionally, all results were visually screened for leaf size and GUS signal.

Arabidopsis root hairs = assay: Root hair number and length quantification; type: in vivo, Arabidopsis thaliana; details: Arabidopsis thaliana, read-out: Total root hair length per root (in % compared to the control)
Procedure: as §1
Roots were imaged using a stereomicroscope or a VHX-6000. Number and length of the root hairs parallel to the medium surface was determined at 4 to 6 mm above the root meristem. Root hair length was measured using the ImageJ software.

Maize = Maize growth experiment in pots with mixture of unfertilized potting soil and sand (leaf 5); type: in vivo
Procedure: For a subset of compounds, we performed a more extensive analysis on their root hair inducing effect in a dose-response experiment (Table 3). This confirms that the more simple structures 8.14 and 8.14.6 still retain the activity of compound 8. […] To validate this, we performed a maize growth experiment using compound 8 and the, based on the increase of total root hair length, stronger variant 8.14.6. The experiment was conducted in pots with a mixture of unfertilized potting soil and sand, and leaf 5 was measured after 29 days (Table 4).

## O=C(CN1CC(C(=O)N2CCCCC2)Oc2ccccc21)N1CC=C(c2ccccc2)CC1 (centres unmarked) [Compound 8.14.1]
[1]
  GUS (SPX1) stained area normalized to the number of seeds: 22 pixels

## CN(Cc1ccc(Br)s1)C(=O)CN1C(=O)CCOc2ccccc21 [Compound 8.14.2]
[1]
  GUS (SPX1) stained area normalized to the number of seeds: 39 pixels

## CC(C)(C)c1csc(NC(=O)CN2C(=O)COc3ccccc32)n1 [Compound 8.14.4]
[1]
  GUS (SPX1) stained area normalized to the number of seeds: 46 pixels

## Cc1ccc2c(c1)OC(C)CN2CC(N)=O (centres unmarked) [Compound 8.14]
[1]
  GUS (SPX1) stained area normalized to the number of seeds: 2 pixels
Arabidopsis root hairs
  activity at 0.6 µM: 231%
  activity at 1.25 µM: 343%
Arabidopsis root hairs; 2.5 μM
  activity at 2.5 µM: 493%
Arabidopsis root hairs; 5 μM
  activity at 5 µM: 803%

## COc1ccc(C)cc1NCC(N)=O [Compound 8.14.6]
Maize; leaf 5 after 29 days
  Growth-promoting effect on maize versus compound 8: even a stronger growth-promoting effect
Maize; maize, pots with unfertilized potting soil and sand, after 29 days, control 38.1
  Leaf 5: 41.8 cm
[1]
  GUS (SPX1) stained area normalized to the number of seeds: 2 pixels
Arabidopsis root hairs
  activity at 0.6 µM: 231%
  activity at 1.25 µM: 592%

## COc1ccc([N+](=O)[O-])cc1NCC(=O)N1CCCC1c1cccs1 (centres unmarked) [Compound 8.14.5]
[1]
  GUS (SPX1) stained area normalized to the number of seeds: 93 pixels

Source: patent publication US20240206469A1, “PHOSPHORUS USE EFFICIENCY ENHANCERS AS PLANT GROWTH PROMOTORS” (EUROCHEM ANTWERPEN, priority 2021, published 2024)
